Reference: patent publication US20080020048A1, “Treatment of Respiratory Disease” (priority 2004, published 2008)

Assays:
[1] = Glycopyrrolate therapy, summary of findings of the studies; format: in vivo
Source text: Further, it is apparent that different dosages of the drug, without side-effects, are essentially equivalent in effect. […] This makes the medicament particularly suitable for the treatment of bronchospasm, or as a rescue medication.

asthma [2] = conditions: single administration of metered-dose aerosol; cited from earlier work
asthma [3] = conditions: inhaled; cited from earlier work

Tachycardia ([1]; problems associated with anti-muscarinics): apparently absent
SMILES: C[N+]1(C)CCC(OC(=O)C(O)(c2ccccc2)C2CCCC2)C1 (centres unmarked) [glycopyrrolate]
Onset of bronchodilation ([1]; in vivo): high and immediate
Period of bronchodilation (asthma [2]): 12 h
Duration of effective treatment (asthma [3]): up to 12 hours
Duration of effective treatment, maximal (asthma [3]): up to 8 hours
